In US8299048B2, “Hexahydrocyclopentyl[f]indazole sulfonamides and derivatives thereof as selective glucocorticoid receptor modulators” (Merck Sharp & Dohme Corp., priority 2008, dated 2012) one finds Ki data, which are given here for 17 compounds.

The target in this experiment is T1, glucocorticoid receptor (Homo sapiens, UniProt P04150).
T1 construct: endogenous in cells
T1 sequence (P04150 1-777): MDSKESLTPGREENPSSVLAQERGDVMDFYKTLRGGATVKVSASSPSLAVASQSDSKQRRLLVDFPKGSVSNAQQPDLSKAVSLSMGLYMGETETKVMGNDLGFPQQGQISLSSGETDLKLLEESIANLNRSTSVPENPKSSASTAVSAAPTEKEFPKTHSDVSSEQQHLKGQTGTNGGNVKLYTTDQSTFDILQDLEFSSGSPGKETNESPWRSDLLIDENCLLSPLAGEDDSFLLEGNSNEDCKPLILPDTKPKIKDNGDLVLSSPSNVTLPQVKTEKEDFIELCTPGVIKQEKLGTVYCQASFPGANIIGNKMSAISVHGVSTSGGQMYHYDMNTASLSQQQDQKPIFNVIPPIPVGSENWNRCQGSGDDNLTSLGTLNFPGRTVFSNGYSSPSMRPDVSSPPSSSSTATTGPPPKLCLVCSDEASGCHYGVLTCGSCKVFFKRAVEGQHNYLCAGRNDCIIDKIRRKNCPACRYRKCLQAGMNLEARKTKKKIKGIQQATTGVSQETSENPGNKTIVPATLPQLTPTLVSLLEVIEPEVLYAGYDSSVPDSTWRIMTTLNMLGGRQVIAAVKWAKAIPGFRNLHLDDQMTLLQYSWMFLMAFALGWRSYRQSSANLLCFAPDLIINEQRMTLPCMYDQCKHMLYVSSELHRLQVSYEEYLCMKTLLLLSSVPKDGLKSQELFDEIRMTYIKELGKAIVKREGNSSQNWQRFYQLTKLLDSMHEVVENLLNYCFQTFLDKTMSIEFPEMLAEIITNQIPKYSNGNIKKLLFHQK
The experiment in a line: Ligand binding assay (GR BIND). How it is done: • Materials: • Binding Buffer: TEGM (10 mM Tris-HCl, 1 mM EDTA, 10% glycerol, 1 mM beta-mecaptoethanol, 10 mM Sodium Molybdate, pH 7.2) • 50% HAP Slurry: Calbiochem Hydroxylapatite, Fast Flow, in 10 mM Tris, pH 8.0 and 1 mM EDTA. • Wash Buffer: 40 mM Tris, pH7.5, 100 mM KCl, 1 mM EDTA and 1 mM EGTA.
Phenol red-free Trypsin-EDTA is diluted in the same PBS1:10. The cell layers are rinsed with 1× Trypsin, extra Trypsin is poured out, and the cell layers are incubated at 37° C. for ˜2 min. The flask is tapped and checked for signs of cell detachment. Once the cells begin to slide off the flask, the complete media is added. The cells are counted at this point, then diluted to the appropriate concentration and split into flasks or dishes for further culturing (Usually 1:3 to 1:6 dilution).
When the cells are 70 to 85% confluent, they are detached as described above, and collected by centrifuging at 1000 g for 10 minutes at 4° C. The cell pellet is washed twice with TEGM (10 mM Tris-HCl, 1 mM EDTA, 10% glycerol, 1 mM beta-mercaptoethanol, 10 mM Sodium Molybdate, pH 7.2). After the final wash, the cells are resuspended in TEGM at a concentration of 10^7 cells/mL. The cell suspension is snap frozen in liquid nitrogen or ethanol/dry ice bath and transferred to −80° C. freezer on dry ice. Before setting up the binding assay, the frozen samples are left on ice-water to just thaw (˜1 hr). Then the samples are centrifuged at 12,500 g to 20,000 g for 30 min at 4° C. The supernatant is used to set-up assay right away. If using 50 μL of supernatant, the test compound can be prepared in 50 μL of the TEGM buffer.
1×TEGM buffer is prepared, and the isotope-containing assay mixture is prepared in the following order: EtOH (2% final concentration in reaction), 3H-DEX (Amersham Biosciences) and 1×TEGM. [e.g. For 100 samples, 200 μL (100×2) of EtOH+4.25 μL of 1:10 ^3H—Dex stock+2300 μL (100×23) 1×TEGM]. The compound is serially diluted, e.g., if starting final conc. is 1 μM, and the compound is in 25 μL of solution, for duplicate samples, 75 μL of 4×1 μM solution is made and 3 μL of 100 μM is added to 72 μL of buffer, and 1:5 serial dilution.
25 μL of ^3H-DEX (6 nM) trace and 25 μL compound solution are first mixed together, followed by addition of 50 μL receptor solution. The reaction is gently mixed, spun briefly at about 200 rpm and incubated at 4° C. overnight. 100 μL of 50% HAP slurry is prepared and added to the incubated reaction which is then vortexed and incubated on ice for 5 to 10 minutes. The reaction mixture is vortexed twice more to resuspend HAP while incubating reaction. The samples in 96-well format are then washed in wash buffer using The FilterMate™ Universal Harvester plate washer (Packard). The washing process transfers HAP pellet containing ligand-bound expressed receptor to Unifilter-96 GF/B filter plate (Packard). The HAP pellet on the filter plate is incubated with 50 μL of MICROSCINT (Packard) scintillint for 30 minutes before being counted on the TopCount microscintillation counter (Packard). […] are calculated using DEX as a reference.

Structures are written as SMILES.

As for `C[C@]12Cc3cnn(-c4ccc(F)cc4)c3C=C1CC[C@@H]2CN(CC1CC1)S(=O)(=O)c1cc(C(F)(F)F)ccc1Cl` [Example 5, 2-chloro-N-(cyclopropylmethyl)-N-{[(4αR,5S)-1-(4-fluorophenyl)-4α-methyl-1,4,4α,5,6,7-hexahydrocyclopenta[f]indazol-5-yl]methyl}-5-(trifluoromethyl)benzenesulfonamide], the Ki (in general, a measure of affinity in units of concentration, obtained from inhibition or displacement) was 1 nM.

For `CC(=O)Nc1ccc(S(=O)(=O)N(CC2CC2)C[C@H]2CCC3=Cc4c(cnn4-c4ccc(F)cc4)C[C@@]32C)cc1` [Example 6, N-{4-[((cyclopropylmethyl){[(4αR,5S)-1-(4-fluorophenyl)-4α-methyl-1,4,4α,5,6,7-hexahydrocyclopenta[f]indazol-5-yl]methyl}amino)sulfonyl]phenyl}acetamide], the Ki came out at 0.9 nM.

The compound `Cc1nn(C)c(Cl)c1S(=O)(=O)N(CC1CC1)C[C@H]1CCC2=Cc3c(cnn3-c3ccc(F)cc3)C[C@@]21C` [Example 7] registered a Ki of 0.4 nM.

Compound `CN1CCOc2cc(S(=O)(=O)N(CC3CC3)C[C@H]3CCC4=Cc5c(cnn5-c5ccc(F)cc5)C[C@@]43C)ccc21` [Example 8, N-(cyclopropylmethyl)-N-{[(4αR,5S)-1-(4-fluorophenyl)-4α-methyl-1,4,4α,5,6,7-hexahydrocyclopenta[f]indazol-5-yl]methyl}-4-methyl-3,4-dihydro-2H-1,4-benzoxazine-7-sulfonamide] gave a Ki of 1.9 nM.

In turn, `CCCCCc1ccc(S(=O)(=O)N(CC2CC2)C[C@H]2CCC3=Cc4c(cnn4-c4ccc(F)cc4)C[C@@]32C)cc1` [Example 9, N-(cyclopropylmethyl)-N-{[(4αR,5S)-1-(4-fluorophenyl)-4α-methyl-1,4,4α,5,6,7-hexahydrocyclopenta[f]indazol-5-yl]methyl}-4-pentylbenzenesulfonamide] yielded an inhibition constant Ki of 2.2 nM.

`C[C@]12Cc3cnn(-c4ccc(F)cc4)c3C=C1CC[C@@H]2CN(CC1CC1)S(=O)(=O)c1ccc(-c2ccccc2)cc1` [Example 10, N-(cyclopropylmethyl)-N-{[(4αR,5S)-1-(4-fluorophenyl)-4α-methyl-1,4,4α,5,6,7-hexahydrocyclopenta[f]indazol-5-yl]methyl}biphenyl-4-sulfonamide] displayed a Ki of 0.7 nM.

In the case of `Cc1noc(C)c1S(=O)(=O)N(CC1CC1)C[C@H]1CCC2=Cc3c(cnn3-c3ccc(F)cc3)C[C@@]21C` [Example 11, N-(cyclopropylmethyl)-N-{[(4αR,5S)-1-(4-fluorophenyl)-4α-methyl-1,4,4α,5,6,7-hexahydrocyclopenta[f]indazol-5-yl]methyl}-3,5-dimethylisoxazole-4-sulfonamide], the Ki stood at 0.7 nM.

In the case of `CCCS(=O)(=O)N(CCOC)C[C@H]1CCC2=Cc3c(cnn3-c3ccc(F)cc3)C[C@@]21C` [Example 95, N-{[(4αR,5S)-1-(4-fluorophenyl)-4α-methyl-1,4,4α,5,6,7-hexahydrocyclopenta[f]indazol-5-yl]methyl}-N-(2-methoxyethyl)propane-1-sulfonamide], the affinity corresponds to a Ki of 5.2 nM.

`COCCN(C[C@H]1CCC2=Cc3c(cnn3-c3ccc(F)cc3)C[C@@]21C)S(C)(=O)=O` [Example 96, N-{[(4αR,5S)-1-(4-fluorophenyl)-4α-methyl-1,4,4α,5,6,7-hexahydrocyclopenta[f]indazol-5-yl]methyl}-N-(2-methoxyethyl)methanesulfonamide]: the Ki amounted to 1.1 nM.

`COCCN(C[C@H]1CCC2=Cc3c(cnn3-c3ccc(F)cc3)C[C@@]21C)S(=O)(=O)CC(F)(F)F` [Example 97, 2,2,2-trifluoro-N-{[(4αR,5S)-1-(4-fluorophenyl)-4α-methyl-1,4,4α,5,6,7-hexahydrocyclopenta[f]indazol-5-yl]methyl}-N-(2-methoxyethyl)ethanesulfonamide]: affinity was put at a Ki of 0.3 nM.

As for `Cn1cc(S(=O)(=O)N(CCc2ccccc2F)C[C@H]2CCC3=Cc4c(cnn4-c4ccc(F)cc4)C[C@@]32C)c(C(F)(F)F)n1` [Example 98, N-[2-(2-fluorophenyl)ethyl]-N-{[(4αR,5S)-1-(4-fluorophenyl)-4α-methyl-1,4,4α,5,6,7-hexahydrocyclopenta[f]indazol-5-yl]methyl}-1-methyl-3-(trifluoromethyl)-1H-pyrazole-4-sulfonamide], the inhibition constant Ki amounted to 1.5 nM.

As to `C[C@]12Cc3cnn(-c4ccc(F)cc4)c3C=C1CC[C@@H]2CN(CCc1ccccc1F)S(=O)(=O)c1ccccc1C(F)(F)F` [Example 99, N-[2-(2-fluorophenyl)ethyl]-N-{[(4αR,5S)-1-(4-fluorophenyl)-4α-methyl-1,4,4α,5,6,7-hexahydrocyclopenta[f]indazol-5-yl]methyl}-2-(trifluoromethyl)benzenesulfonamide], affinity was put at a Ki of 1.4 nM.

Turning to `C[C@]12Cc3cnn(-c4ccc(F)cc4)c3C=C1CC[C@@H]2CN(CCc1ccccc1F)S(=O)(=O)c1ccccc1Cl` [Example 100, 2-chloro-N-[2-(2-fluorophenyl)ethyl]-N-{[(4αR,5S)-1-(4-fluorophenyl)-4α-methyl-1,4,4α,5,6,7-hexahydrocyclopenta[f]indazol-5-yl]methyl}benzenesulfonamide], the Ki was determined as 2.1 nM.

As to `CCCCS(=O)(=O)N(CCc1ccccc1F)C[C@H]1CCC2=Cc3c(cnn3-c3ccc(F)cc3)C[C@@]21C` [Example 102, N-[2-(2-fluorophenyl)ethyl]-N-{[(4αR,5S)-1-(4-fluorophenyl)-4α-methyl-1,4,4α,5,6,7-hexahydrocyclopenta[f]indazol-5-yl]methyl}butane-1-sulfonamide], the inhibition constant (Ki) was 2.6 nM.

Take `CC(C)CS(=O)(=O)N(CCc1ccccc1F)C[C@H]1CCC2=Cc3c(cnn3-c3ccc(F)cc3)C[C@@]21C` [Example 103, N-[2-(2-fluorophenyl)ethyl]-N-{[(4αR,5S)-1-(4-fluorophenyl)-4α-methyl-1,4,4α,5,6,7-hexahydrocyclopenta[f]indazol-5-yl]methyl}-2-methylpropane-1-sulfonamide]: the Ki is 1.7 nM.

Compound `CCCCCCCCS(=O)(=O)N(CCc1ccccc1F)C[C@H]1CCC2=Cc3c(cnn3-c3ccc(F)cc3)C[C@@]21C` [Example 104, N-[2-(2-fluorophenyl)ethyl]-N-{[(4αR,5S)-1-(4-fluorophenyl)-4α-methyl-1,4,4α,5,6,7-hexahydrocyclopenta[f]indazol-5-yl]methyl}octane-1-sulfonamide] gave an inhibition constant (Ki) of 9.8 nM.

`C[C@]12Cc3cnn(-c4ccc(F)cc4)c3C=C1CC[C@@H]2CN(CCc1ccccc1F)S(=O)(=O)Cc1ccc(Cl)cc1Cl` [Example 105, 1-(2,4-dichlorophenyl)-N-[2-(2-fluorophenyl)ethyl]-N-{[(4αR,5S)-1-(4-fluorophenyl)-4α-methyl-1,4,4α,5,6,7-hexahydrocyclopenta[f]indazol-5-yl]methyl}methanesulfonamide] yielded a Ki of 1.7 nM.
